How the values were obtained:
[1] = Dissolution temperature in 10% (v/v) water in acetic acid; format: physicochemical; settings: ratio (w/v) of compound to solvent about 1.6 g: 10 mL
[2] = Particle size by light diffraction (Sympatec HELOS, dry powder dispersion); format: physicochemical
Description: Dispersion was performed on a sample of Form A of 3-fluoro-7-(2,2,2-trifluoroethoxy)phenoxathiin-10,10-dioxide produced accordance with the method presented in Example 4. Dispersion pressure of 0.5 to 2.0 bar was used to disperse the sample particles. Samples were analyzed by microscopy prior to particle size analysis to assess aggregation and estimate particle size, and without fracturing primary particles or causing aggregation. […] Particle size was measured using a Sympatec HELOS equipped with VIERI dry powder feeder unit, and sample measurements for optimization of jet pressure and repeatability were performed according to USP<429>, Method Validation Protocol ANC00756, and TM-1509 Rev.00 (draft).

temperature at which the form dissolves [1]: 75-85 °C
x10 ([2]; Dispersion Pressure 0.5 bar): 3.05 μm
x50 ([2]; Dispersion Pressure 0.5 bar): 9.07 μm
x90 ([2]; Dispersion Pressure 0.5 bar): 24.49 μm
x10 ([2]; Dispersion Pressure 1 bar): 2.54 μm
x50 ([2]; Dispersion Pressure 1 bar): 7.96 μm
x90 ([2]; Dispersion Pressure 1 bar): 19.32 μm
x10 ([2]; Dispersion Pressure 1.5 bar): 2.21 μm
x50 ([2]; Dispersion Pressure 1.5 bar): 7.35 μm
x90 ([2]; Dispersion Pressure 1.5 bar): 17.1 μm
x10 ([2]; Dispersion Pressure 2 bar): 1.94 μm
x50 ([2]; Dispersion Pressure 2 bar): 6.88 μm
x90 ([2]; Dispersion Pressure 2 bar): 15.32 μm
Compound: O=S1(=O)c2ccc(F)cc2Oc2cc(OCC(F)(F)F)ccc21 [Form A, 3-fluoro-7-(2,2,2-trifluoroethoxy)phenoxathiin-10,10-dioxide]
